{"source": "patent US8809233B2", "about": "“Ternary herbicidal compositions comprising aminopyralid and imazamox” (BASF SE, priority 2008, dated 2014)", "type_in_all_cases": "in vivo", "key": {"[1]": {"test_system": "Matricaria inodora (MATIN)", "experiment": "greenhouse post-emergence herbicidal activity on MATIN", "conditions": "Tripleurospermum inodorum", "description": "(§1) The test plants have been seeded, separately for each species, in plastic containers in sandy loamy soil containing 5% of organic matter.\n(§2) For the post emergence treatment, the plants were first grown to the 2 leaf station (GS 12). Here, the herbicidal compositions were suspended or emulsified in water as distribution medium and sprayed using finely distributing nozzels.\n(§3) The plants have been cultivated due to there individual requirements at 10-25° C. and 20-35° C. The plants were irrigated due to there necessity.\n(§4) The respective herbicides A and/or safener were formulated as 10% by weight strength suspension concentrate and introduced to the spray liquor with the amount of solvent system used for applying the active compound. Herbicide B and/or safener were used as commercially available formulations and introduced to the spray liquor with the amount of solvent system used for applying the active compound. In the examples, the solvent used was water.\n(§5) In the following experiments, the herbicidal activity for the individual herbicide compounds (solo and mixture applications), the herbicidal succession was assessed 14 days after treatment (DAT).\n(§6) The evaluation for the damage on undesired weeds caused by the chemical compositions was carried out using a scale from 0 to 100%, compared to the untreated control plants. Here, 0 means no damage and 100 means complete destruction of the plants.\n(§7) The value E, which is to be expected if the activity of the individual compounds is just additive, was calculated using the method of S. R. Colby (1967) “Calculating synergistic and antagonistic responses of herbicide combinations”, weeds 15, p. 22ff.\n(§8) [formula] where: X=effect in percent using herbicide A at an application rate a; Y=effect in percent using herbicide B at an application rate b; Z=effect in percent using herbicide C at an application rate c; E=expected effect (in %) of A+B+C at application rates a+b+c\n(§9) Tables 1 to 2 relate to the herbicidal activity, in greenhouse trials, of the individual actives and the combination in post-emergence application 14 DAT."}, "[2]": {"test_system": "Papaver rhoeas (PAPRH)", "experiment": "greenhouse post-emergence herbicidal activity on PAPRH", "description": "as §1, §2, §3, §4, §5, §6, §7, §8, §9"}, "[3]": {"test_system": "Mercurialis annua (MERAN)", "experiment": "greenhouse post-emergence herbicidal activity on MERAN", "description": "as §1, §2, §3, §4, §5, §6, §7, §8, §9"}, "[4]": {"test_system": "Thlaspi arvense (THLAR)", "experiment": "greenhouse post-emergence herbicidal activity on THLAR", "description": "as §1, §2, §3, §4, §5, §6, §7, §8, §9"}, "[5]": {"test_system": "Viola arvensis (VIOAR)", "experiment": "greenhouse post-emergence herbicidal activity on VIOAR", "description": "as §1, §2, §3, §4, §5, §6, §7, §8, §9"}, "[6]": {"test_system": "Capsella bursa-pasturis (CAPBP)", "experiment": "greenhouse post-emergence herbicidal activity on CAPBP", "description": "as §1, §2, §3, §4, §5, §6, §7, §8, §9"}, "[7]": {"test_system": "Matricaria chamomilla (MATCH)", "experiment": "greenhouse post-emergence herbicidal activity on MATCH", "conditions": "672 h, read-out: % activity 28 DAT", "description": "as §1, §2, §3\nas §4, with “water. […]” for “water.”\nThe evaluation for the damage on undesired weeds caused by the chemical compositions was carried out using a scale from 0 to 100%, compared to the untreated control plants. […]\nThe value E, which is to be expected if the activity of the individual compounds is just additive, was calculated using the method of S. R. Colby (1967) “Calculating synergistic and antagonistic responses of herbicide combinations”, weeds 15, p. […]"}}, "note": "Read-outs that look alike come from different tables or passages of the source.", "data": [{"smiles": "COCc1cnc(C2=NC(C)(C(C)C)C(=O)N2)c(C(=O)O)c1", "note": "(racemic) [imazamox, 2-[(RS)-4-isopropyl-4-methyl-5-oxo-2-imidazolin-2-yl]-5-methoxymethylnicotinic acid]", "values": [{"measurement": "inhibition at 20 g/ha", "setting": "[1]; MATIN, solo application, use rate 20 g ai/ha", "value": 65, "unit": "%"}, {"measurement": "inhibition at 20 g/ha", "setting": "[2]; PAPRH, solo application, use rate 20 g ai/ha", "value": 35, "unit": "%"}, {"measurement": "inhibition at 20 g/ha", "setting": "[3]; MERAN, solo application, use rate 20 g ai/ha", "value": 90, "unit": "%"}, {"measurement": "inhibition at 20 g/ha", "setting": "[4]; THLAR, solo application, use rate 20 g ai/ha", "value": 90, "unit": "%"}, {"measurement": "inhibition at 20 g/ha", "setting": "[5]; VIOAR, solo application, use rate 20 g ai/ha", "value": 0, "unit": "%"}, {"measurement": "inhibition at 20 g/ha", "setting": "[6]; CAPBP, solo application, use rate 20 g ai/ha", "value": 90, "unit": "%"}, {"measurement": "inhibition at 10 g/ha", "setting": "[6]; Table 2, CAPBP, solo application, use rate 10 g ai/ha (imazamox), read-out: % activity", "value": 80, "unit": "%"}]}, {"smiles": "Nc1cc(Cl)nc(C(=O)O)c1Cl", "note": "[aminopyralid, 4-amino-3,6-dichloropyridine-2-carboxylic acid]", "values": [{"measurement": "inhibition at 2.5 g/ha", "setting": "[1]; read-out: % activity", "value": 35, "unit": "%"}, {"measurement": "inhibition at 5 g/ha", "setting": "[1]; read-out: % activity", "value": 60, "unit": "%"}, {"measurement": "inhibition at 2.5 g/ha", "setting": "[7]", "value": 40, "unit": "%"}, {"measurement": "inhibition at 5 g/ha", "setting": "[7]", "value": 75, "unit": "%"}, {"measurement": "inhibition at 2.5 g/ha", "setting": "[2]; read-out: % activity", "value": 0, "unit": "%"}, {"measurement": "inhibition at 5 g/ha", "setting": "[2]; read-out: % activity", "value": 15, "unit": "%"}, {"measurement": "inhibition at 2.5 g/ha", "setting": "[3]; read-out: % activity", "value": 70, "unit": "%"}, {"measurement": "inhibition at 2.5 g/ha", "setting": "[4]; read-out: % activity", "value": 30, "unit": "%"}, {"measurement": "inhibition at 2.5 g/ha", "setting": "[5]; read-out: % activity", "value": 10, "unit": "%"}, {"measurement": "inhibition at 5 g/ha", "setting": "[5]; read-out: % activity", "value": 10, "unit": "%"}, {"measurement": "inhibition at 2.5 g/ha", "setting": "[6]; read-out: % activity", "value": 0, "unit": "%"}, {"measurement": "inhibition at 5 g/ha", "setting": "[6]; read-out: % activity", "value": 10, "unit": "%"}, {"measurement": "inhibition at 10 g/ha", "setting": "[6]; read-out: % activity", "value": 25, "unit": "%"}]}, {"smiles": "O=C(O)c1nc(Cl)ccc1Cl", "note": "[clopyralid]", "values": [{"measurement": "inhibition at 30 g/ha", "setting": "[6]; Table 2, CAPBP, solo application, use rate 30 g ai/ha", "value": 0, "unit": "%"}, {"measurement": "inhibition at 120 g/ha", "setting": "[6]; Table 2, CAPBP, solo application, use rate 120 g ai/ha", "value": 10, "unit": "%"}]}, {"smiles": "Cc1cccc(C)c1N(Cn1cccn1)C(=O)CCl", "note": "[metazachlor]", "values": [{"measurement": "inhibition at 187 g/ha", "setting": "[1]; MATIN, solo application, use rate 187 g ai/ha", "value": 60, "unit": "%"}, {"measurement": "inhibition at 187 g/ha", "setting": "[2]; PAPRH, solo application, use rate 187 g ai/ha", "value": 30, "unit": "%"}, {"measurement": "inhibition at 187 g/ha", "setting": "[3]; MERAN, solo application, use rate 187 g ai/ha", "value": 15, "unit": "%"}, {"measurement": "inhibition at 187 g/ha", "setting": "[4]; THLAR, solo application, use rate 187 g ai/ha", "value": 0, "unit": "%"}, {"measurement": "inhibition at 187 g/ha", "setting": "[5]; VIOAR, solo application, use rate 187 g ai/ha", "value": 15, "unit": "%"}, {"measurement": "inhibition at 187 g/ha", "setting": "[6]; CAPBP, solo application, use rate 187 g ai/ha", "value": 0, "unit": "%"}]}]}
